Experiments:
p21 promoter [1] = assay: Chromatin immunoprecipitation (ChIP) in U2OS cells after DNA damage, p21 promoter; type: cell-based, human
From the text: To address this issue, a chromatin immunoprecipitation (ChIPs) technique was used to examine the temporal order of interaction of a variety of transcription proteins to individual p53-responsive promoters that control cell cycle arrest and apoptosis before and after DNA damage by two different damaging agents. […] For example, before damage the p21 promoter is already poised for transcription by containing bound RNA polymerase II, TATA binding protein (TBP), TFIIB, and TFIIH.
U2OS cells were grown to 50-60% confluency and treated either with UV-C or doxorubicin, (constant presence in media) for various times before crosslinking. After aspirating the media and washing with phosphate-buffered saline (PBS), cells were crosslinked with a 1% formaldehyde solution in 1×PBS for 15 min at room temperature. Crosslinking was stopped by addition of glycine to 125 mM final concentration. Monolayers were washed twice with cold PBS and harvested in radioimmunoprecipitation assay (RIPA) buffer [150 mM NaCl, 1% v/v Nonidet P-40, 0.5% w/v deoxycholate, 0.1% w/v SDS, 50 mM Tris pH 8, 5 mM EDTA, protease inhibitor cocktail, phosphatase inhibitors (20 mM NaF/0.2 mM sodium orthovanadate), deacetylase inhibitors (5 μM trichostatin A/5 mM sodium butyrate) and 0.5 mM PMSF] to generate a suspension of 10 million cells/ml. Suspensions were sonicated to generate DNA fragments below 500 bp and clarified by centrifugation for 10 min at 12000 g. Protein solutions were quantified for protein and DNA content and adjusted to 1 mg/ml of protein.
For immunoprecipitation, 1 mg of protein extract was pre-cleared for 2 hrs with 40 μl of a 50% slurry of 50:50 proteinA:proteinG sepharose before addition of indicated antibodies. Antibody (Ab) sources: DO1 (anti-total p53, Oncogene), S15P (anti-Serine 15-phospho-p53, Cell Signaling), AcH4 (Upstate), anti-TAF250 (R. Tjian), anti-TFIIB, -TBP, -RNApol II, -TFIIH (Santa Cruz), anti-serine 2-phospho-RNApol II and anti-serine 5-phospho-RNApol II (Covance). […]
DNA was precipitated and used as template in semi-quantitative PCR reactions. […]

[2] = system: chromatin-assembled p21 promoter; assay: In vitro transcription of the chromatin-assembled p21-LUC template with HeLa cell nuclear extract; type: biochemical, human
Protocol: The p21-LUC chromatin template was subjected to in vitro transcription reactions using HeLa cell nuclear extracts as a source of basal initiation components in the presence or absence of p53 and/or p300, as described in the protocol depicted in FIG. 1B. Both factors were added after chromatin assembly was complete (“post assembly”) and incubated with the template prior to in vitro transcription. Addition of p53 alone produced very modest transcriptional activation. […] Neither p53 nor p300 appreciably influenced transcription of naked DNA templates. Identical results were obtained using extracts from another cell line, erythroid K562. Thus, transcriptional activation from the chromatin-assembled p21 promoter in vitro requires p53, acting at a distance of at least 1.38 kb, in combination with a histone acetyl transferase cofactor, p300.
Chromatin was reconstituted using Drosophila embryonic extracts as described (Bulger, M. and Kadonaga, J. 1994 Methods Mol Genet 5:242-262). After assembly, the chromatin template (500 ng of DNA in 50 μl) was incubated with p53 and/or p300 (typically between 0.2-10 pmol of p53 and 0.2-0.5 pmol of p300), for 30 min at 27° C. For transcription, 20 μl of HeLa cell nuclear extract (typically 8 mg/ml) was added and incubated on ice for 10 min, then reactions proceeded as described (Kadam, S. et al. 2000 Genes & Dev 14:2441-2451). The purified RNA was analyzed by primer extension analysis with primers specific to luciferase and -globin gene (used as an internal control) sequences.

p21 promoter 5′ site = assay: Electrophoretic Mobility Shift Assay (EMSA) of p53 binding to DNA containing the 5′ site of the p21 promoter; parameters: species or system human; conditions: compared with the acetylated form of wild-type p53
From the text: Both probes were ^32P end-labeled using T4 polynucleotide kinase and further purified by 12%-15% polyacrylamide native gels.

p21 promoter [3] = assay: DNase I footprinting of chromatin and DNA (p21-LUC plasmid); type: binding, human; conditions: DNase I footprinting on p21 promoter DNA or chromatin
Protocol: To analyze the mechanism by which p300 mediates p53-dependent activation, DNase I chromatin footprinting assays were performed to examine the occupancy of the 5′ and 3′ sites of the p21 promoter under conditions of transcriptional coactivation. Chromatin assembly and factor incubation steps were performed as described above, but the samples were split into three aliquots just before the in vitro transcription reaction. One aliquot was subjected to DNase I digestion, the second was transcribed, and the third was analyzed by Western blot to determine the acetylation status of p53.
DNA footprinting experiments were performed with chromatin-assembled p21 promoters after ATP depletion and purification by gel filtration using nonsaturating amounts of p53.
DNase I footprinting was done using three different templates: crude chromatin-assembled mixtures, CL4B-purified chromatin, and naked DNA. […] After incubation of the different templates with the proteins, samples were digested with 33 U/ml (crude chromatin), 1.5 U/ml (purified chromatin) or 0.1 U/ml (naked DNA) DNase I (Boehringer Mannheim) for 75 s at 25° C. Purified DNA fragments were analyzed by primer extension.

[4] = system: chromatin-assembled p21 promoter; assay: In vitro chromatin immunoprecipitation with anti-acetyl-H4 antibodies; type: biochemical, human; conditions: p53 and p300
Protocol: To determine whether p53 influenced the localization of nucleosome acetylation on the p21 promoter by direct recruitment of p300, in vitro chromatin immunoprecipitation assays were performed. p21 promoters were assembled into chromatin using purified components and incubated with p53 and/or p300. Chromatin was digested with micrococcal nuclease and acetylated oligonucleosomes were immunoprecipitated using anti-acetyl-H4 antibodies. Specific p21 plasmid sequences in the immunoprecipitates were detected by PCR amplification or Southern blot. Identical results were obtained from both assays. […] The extent of increased acetylation in different regions of the p21-LUC plasmid varied from 3.4-fold near the 3′ p53 binding site to 1.4-fold in a distal region located 2 kb downstream of the proximal promoter. […] The following decreasing levels of acetylation were found: 3′ site>TATA box=5′ site>>+2 kb.
Chromatin immunoprecipitation analysis was performed using the anti-acetylated histone H4 antibody (Upstate Biotechnology) according to the manufacturer's recommendations and as previously described (Kundu, T. K. et al. 2000 Mol Cell 6:551-561) with some minor modifications, and as described in Example 2 (see below).

[5] = system: nucleosomal histones of the chromatin-assembled p21 promoter; assay: Chromatin HAT assay (3H-acetyl CoA incorporation); type: biochemical
Protocol: The quality of p21 promoter chromatin assembled in this purified system was determined by micrococcal nuclease digestion, as for embryo extracts, with similar results. The templates were then incubated with p53 and/or p300 in the presence of ^3H-acetyl CoA and the extent of acetylation monitored by incorporation of radioactivity when analyzed by SDS-PAGE and fluorography. […] A control reaction with equivalent amounts of free histones and p300 was included. Acetylation of p53 and autoacetylation of p300 was also detected.
Chromatin assembly was performed with recombinant dACF complex and NAP-1 histone chaperone as described (Ito, T. et al. 1999 Genes & Dev 13:1529-1539 and references therein). Chromatin assembly was assessed by micrococcal nuclease digestion and transcriptional repression. After assembly, proteins were added to the chromatin mixtures in the presence of 5 μM ^3H-acetyl CoA (ICN). After incubation for 1 hr at 30° C. with p53 and/or p300, reactions were stopped by boiling in SDS-PAGE loading buffer and analyzed on a 15% SDS-PAGE gel. The gel was fixed and treated with fluorography enhancing solutions (NEN Life Science). The gel was then dried and exposed to autoradiography.

COc1cccc2c1C(=O)c1c(O)c3c(c(O)c1C2=O)C[C@@](O)(C(=O)CO)C[C@@H]3O[C@H]1C[C@H](N)[C@H](O)[C@H](C)O1 [doxorubicin]
binding of phosphorylated p53 to the p21 promoter (p21 promoter [1]): significantly increased
recruitment of TAFII250 to the p21 promoter (p21 promoter [1]): no recruitment
recruitment of TFIIB to the p21 promoter (p21 promoter [1]): active recruitment

p53KR: mutant p53 in which lysines 370, 372, 373, 381, and 382 within the C-terminal domain were replaced by arginine
ability to activate transcription compared with wild-type p53 ([2]; with p300): coactivated by p300 to a similar extent as wild-type p53

p53ΔC30: C-terminal deleted form of p53, lacking the last 30 amino acid residues
binding activity in EMSA (p21 promoter 5′ site): strongly active
binding to the 3′ site (p21 promoter [3]): no binding
binding to the 5′ site (p21 promoter [3]): weaker binding

p300: full-length human histidine-tagged p300, histone acetyl transferase cofactor, expressed in Sf9 cells
extent of increased acetylation ([4]; distal region 2 kb downstream of the proximal promoter): 1.4 fold
extent of increased acetylation ([4]; near the 3′ p53 binding site): 3.4 fold
transcriptional activation of the chromatin template ([2]; coincubation with p53): strong synergistic de-repression
transcriptional activation of the chromatin template ([2]; p300 alone): unable to achieve such activation
acetylation of nucleosomal histones ([5]; both p53 and p300 present): strong acetylation
acetylation of nucleosomal histones ([5]; p300 alone): very weak acetylation
